Where a name gives a salt, the structure may show the parent alone.
Biological target: T1, hNET (Homo sapiens, UniProt P23975)
T1 construct: expressed in transfected cells
Experiment: Norepinephrine (NE) uptake assay in MDCK-Net6 cells
Format: cell-based
Settings: [3H]NE uptake
Protocol: MDCK-Net6 cells, stably transfected with human hNET (Pacholczyk, T., R. D. Blakely, and S. G. Amara, Nature, 1991, 350(6316): p. 350-4) were cultured in growth medium containing high glucose DMEM (Gibco, Cat. No. 11995), 10% FBS (dialyzed, heat-inactivated, US Bio-Technologies, Lot FBD1129HI) and 500 µg/ml G418 (Gibco, Cat. No. 10131). Cells were plated at 300,000/T75 flask and cells were split twice weekly. The JAR cell line (human placental choriocarcinoma) was purchased from ATCC (Cat. No. HTB-144). The cells were cultured in growth medium containing RPMI 1640 (Gibco, Cat. No. 72400), 10% FBS (Irvine, Cat. No. 3000), 1% sodium pyruvate (Gibco, Cat. No. 1136) and 0.25% glucose. Cells were plated at 250,000 cells/T75 flask and split twice weekly. For all assays, cells were plated in Wallac 96-well sterile plates (PerkinElmer, Cat. No. 3983498)
On day 1, cells were plated at 3,000 cells/well in growth medium and maintained in a cell incubator (37° C., 5% CO2). On day 2, growth medium was replaced with 200 μl of assay buffer (25 mM HEPES; 120 mM NaCl; 5 mM KCl; 2.5 mM CaCl2; 1.2 mM MgSO4; 2 mg/ml glucose (pH 7.4, 37° C.)) containing 0.2 mg/ml ascorbic acid and 10 μM pargyline. […] The plates were counted in a Wallac Microbeta counter (PerkinElmer) to collect the raw cpm data. […]

T1 sequence (P23975 whole entry): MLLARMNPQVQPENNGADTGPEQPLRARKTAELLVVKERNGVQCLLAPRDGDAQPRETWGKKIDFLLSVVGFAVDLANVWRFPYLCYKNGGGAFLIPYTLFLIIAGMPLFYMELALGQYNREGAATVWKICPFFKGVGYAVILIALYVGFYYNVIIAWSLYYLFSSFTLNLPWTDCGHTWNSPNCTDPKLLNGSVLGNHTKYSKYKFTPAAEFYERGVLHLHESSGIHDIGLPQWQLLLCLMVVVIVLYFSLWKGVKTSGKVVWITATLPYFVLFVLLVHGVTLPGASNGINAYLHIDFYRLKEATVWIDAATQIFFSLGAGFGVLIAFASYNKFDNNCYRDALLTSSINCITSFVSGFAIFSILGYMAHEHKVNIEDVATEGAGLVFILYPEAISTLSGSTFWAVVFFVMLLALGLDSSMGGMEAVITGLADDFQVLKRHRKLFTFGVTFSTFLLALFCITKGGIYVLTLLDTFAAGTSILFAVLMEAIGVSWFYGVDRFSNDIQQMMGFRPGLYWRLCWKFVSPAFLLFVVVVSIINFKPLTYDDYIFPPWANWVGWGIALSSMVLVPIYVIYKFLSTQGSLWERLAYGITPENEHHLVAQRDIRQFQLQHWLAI

CNCC[C@@H](c1ccccc1)N1c2ccccc2N(C)S1(=O)=O [Example 5, (3S)-N-methyl-3-(3-methyl-2,2-dioxido-2,1,3-benzothiadiazol-1(3H)-yl)-3-phenylpropan-1-amine hydrochloride]
inhibition at 6 µM: 33%

Source: patent US7601744B2, “Benzothiadiazolylphenylalkylamine derivatives and methods of their use” (Wyeth, priority 2005, dated 2009)
